Test results as given in patent US20090099158A1, “TETRAHYDROISOQUINOLINE COMPOUNDS AS MODULATORS OF THE HISTAMINE H3 RECEPTOR” (priority 2007, published 2009).
pKi: −log10 of the molar value.

Molecular target: T1, cloned human H3 receptors (Homo sapiens, UniProt Q9Y5N1)
T1 construct: expressed in transfected cells; host or cells: SK-N-MC cells
Assay: H3 Receptor Binding (Human)
Details: cloned human H3 receptors stably expressed in SK-N-MC cells; average of the results obtained
Procedure: Binding of compounds to the cloned human H3 receptors, stably expressed in SK-N-MC cells, was performed as described by Barbier, A. J. et al. (Br. J. Pharmacol. 2004, 143(5), 649-661). Data for compounds tested in this assay are presented in Table 1 as an average of the results obtained.

T1 sequence (Q9Y5N1 whole entry): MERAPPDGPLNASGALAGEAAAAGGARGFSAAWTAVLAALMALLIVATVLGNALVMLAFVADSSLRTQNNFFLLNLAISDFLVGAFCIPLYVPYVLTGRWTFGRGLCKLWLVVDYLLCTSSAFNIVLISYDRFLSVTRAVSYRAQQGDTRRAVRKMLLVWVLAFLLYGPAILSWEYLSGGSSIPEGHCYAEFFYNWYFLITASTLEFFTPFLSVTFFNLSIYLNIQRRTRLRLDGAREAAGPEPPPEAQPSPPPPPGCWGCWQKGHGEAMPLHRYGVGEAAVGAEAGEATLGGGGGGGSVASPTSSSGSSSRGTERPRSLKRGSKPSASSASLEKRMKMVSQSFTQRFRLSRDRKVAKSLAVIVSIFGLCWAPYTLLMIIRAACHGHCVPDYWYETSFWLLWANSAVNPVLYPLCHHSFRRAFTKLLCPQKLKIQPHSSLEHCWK

Question: With `Cc1ccc(C(=O)N2CCc3cc(C(=O)N4CCN(C5CCC5)CC4)ccc3C2)cc1` [Example 113, (4-Cyclobutyl-piperazin-1-yl)-[2-(4-methyl-benzoyl)-1,2,3,4-tetrahydro-isoquinolin-6-yl]-methanone] as the compound, how does the pKi read?
Answer: The pKi was 7.66.

Question: With `CC(C)N1CCN(C(=O)c2ccc3c(c2)CCN(C(=O)c2ccc(Cl)c(Cl)c2)C3)CC1` [Example 111, [2-(3,4-Dichloro-benzoyl)-1,2,3,4-tetrahydro-isoquinolin-6-yl]-(4-isopropyl-piperazin-1-yl)-methanone] as the compound, how does the pKi read?
Answer: The pKi was 7.62.

Question: How did the pKi turn out when `COc1ccccc1C(=O)N1CCc2cc(C(=O)N3CCN(C4CCCCC4)CC3)ccc2C1` [Example 78, (4-Cyclohexyl-piperazin-1-yl)-[2-(2-methoxy-benzoyl)-1,2,3,4-tetrahydro-isoquinolin-6-yl]-methanone] was run?
Answer: The pKi was 7.15.

Question: With `O=C(c1ccc2c(c1)CCN(C(=O)C1CCCCC1)C2)N1CCC(N2CCCCC2)CC1` [Example 157, [6-([1,4′]Bipiperidinyl-1′-carbonyl)-3,4-dihydro-1H-isoquinolin-2-yl]-cyclohexyl-methanone] as the compound, how does the pKi read?
Answer: Its pKi is 6.96.

Question: With `O=C(c1ccc2c(c1)CCN(C(=O)c1cccc(F)c1)C2)N1CCN(C2CCC2)CC1` [Example 62, (4-Cyclobutyl-piperazin-1-yl)-[2-(3-fluoro-benzoyl)-1,2,3,4-tetrahydro-isoquinolin-6-yl]-methanone] as the compound, how does the pKi read?
Answer: Its pKi is 7.62.

Question: How did the pKi turn out when `CCCc1ccc(C(=O)N2CCc3cc(C(=O)N4CCCN(C5CCC5)CC4)ccc3C2)cc1` [Example 140, [6-(4-Cyclobutyl-[1,4]diazepane-1-carbonyl)-3,4-dihydro-1H-isoquinolin-2-yl]-(4-propyl-phenyl)-methanone] was run?
Answer: The pKi was 8.70.

Question: How did the pKi turn out when `CC(C)(C)c1ccc(C(=O)N2CCc3cc(C(=O)N4CCN5CCCCC5C4)ccc3C2)cc1` (stereo not shown) [Example 98, [2-(4-tert-Butyl-benzoyl)-1,2,3,4-tetrahydro-isoquinolin-6-yl]-(octahydro-pyrido[1,2-a]pyrazin-2-yl)-methanone] was run?
Answer: The pKi was 7.42.

Question: `O=C(c1ccc2c(c1)CCN(C(=O)c1ccc(F)cc1F)C2)N1CCN(C2CCC2)CC1` [Example 126, (4-Cyclobutyl-piperazin-1-yl)-[2-(2,4-difluoro-benzoyl)-1,2,3,4-tetrahydro-isoquinolin-6-yl]-methanone] was tested. Which pKi did it give?
Answer: The pKi was 8.05.

Question: How did the pKi turn out when `Cc1cccc(C(=O)N2CCc3cc(C(=O)N4CCN(C5CCC5)CC4)ccc3C2)c1` [Example 120, [6-(4-Cyclobutyl-piperazine-1-carbonyl)-3,4-dihydro-1H-isoquinolin-2-yl]-m-tolyl-methanone] was run?
Answer: Its pKi is 7.92.

Question: How did the pKi turn out when `O=C(c1ccc2c(c1)CCN(Cc1ccccc1)C2)N1CCOCC1` [Example 13, (2-Benzyl-1,2,3,4-tetrahydro-isoquinolin-6-yl)-morpholin-4-yl-methanone] was run?
Answer: The pKi was less than 5.00.

Question: How did the pKi turn out when `O=C(c1ccc2c(c1)CCN(Cc1ccc(Cl)c(Cl)c1)C2)N1CCN(C2CCC2)CC1` [Example 16, (4-Cyclobutyl-piperazin-1-yl)-[2-(3,4-dichloro-benzyl)-1,2,3,4-tetrahydro-isoquinolin-6-yl]-methanone] was run?
Answer: The pKi was 7.74.

Question: How did the pKi turn out when `CC(C)N1CCN(C(=O)c2ccc3c(c2)CCN(C(=O)c2ccc(O)cc2)C3)CC1` [Example 107, [2-(4-Hydroxy-benzoyl)-1,2,3,4-tetrahydro-isoquinolin-6-yl]-(4-isopropyl-piperazin-1-yl)-methanone] was run?
Answer: The pKi was 7.47.

Question: How did the pKi turn out when `COc1ccccc1C(=O)N1CCc2cc(C(=O)N3CCN4CCCCC4C3)ccc2C1` (stereo not shown) [Example 92, [2-(2-Methoxy-benzoyl)-1,2,3,4-tetrahydro-isoquinolin-6-yl]-(octahydro-pyrido[1,2-a]pyrazin-2-yl)-methanone] was run?
Answer: Its pKi is 7.64.

Question: How did the pKi turn out when `CO[C@H]1CC[C@H](C(=O)N2CCc3cc(C(=O)N4CCCN(C5CCC5)CC4)ccc3C2)CC1` [Example 147, trans-[6-(4-Cyclobutyl-[1,4]diazepane-1-carbonyl)-3,4-dihydro-1H-isoquinolin-2-yl]-(4-methoxy-cyclohexyl)-methanone] was run?
Answer: Its pKi is 9.00.

Question: How did the pKi turn out when `O=C(Cc1ccccc1)N1CCc2cc(C(=O)N3CCN(C4CCC4)CC3)ccc2C1` [Example 129, 1-[6-(4-Cyclobutyl-piperazine-1-carbonyl)-3,4-dihydro-1H-isoquinolin-2-yl]-2-phenyl-ethanone] was run?
Answer: The pKi was 7.74.

Question: How did the pKi turn out when `Cc1ccccc1C(=O)N1CCc2cc(C(=O)N3CCN(C4CCCCC4)CC3)ccc2C1` [Example 82, (4-Cyclohexyl-piperazin-1-yl)-[2-(2-methyl-benzoyl)-1,2,3,4-tetrahydro-isoquinolin-6-yl]-methanone] was run?
Answer: The pKi was 7.26.

Question: With `N#Cc1cccc(C(=O)N2CCc3cc(C(=O)N4CCN(C5CCCCC5)CC4)ccc3C2)c1` [Example 80] as the compound, how does the pKi read?
Answer: The pKi was 7.15.

Question: `CC(C)N1CCN(C(=O)c2ccc3c(c2)CCN(C(=O)c2ccccc2)C3)CC1` [Example 28, (2-Benzoyl-1,2,3,4-tetrahydro-isoquinolin-6-yl)-(4-isopropyl-piperazin-1-yl)-methanone] was tested. Which pKi did it give?
Answer: Its pKi is 7.80.

Question: `O=C(c1ccc2c(c1)CCN(C(=O)c1ccccc1Cl)C2)N1CCN(C2CCC2)CC1` [Example 42, (2-Chloro-phenyl)-[6-(4-cyclobutyl-piperazine-1-carbonyl)-3,4-dihydro-1H-isoquinolin-2-yl]-methanone] was tested. Which pKi did it give?
Answer: Its pKi is 8.00.

Question: How did the pKi turn out when `CC(C)N1CCN(C(=O)c2ccc3c(c2)CCN(Cc2ccccc2)C3)CC1` [Example 21, (2-Benzyl-1,2,34-tetrahydro-isoquinolin-6-yl)-(4-isopropyl-piperazin-1-yl)-methanone] was run?
Answer: Its pKi is 7.55.

Question: How did the pKi turn out when `O=C(c1ccc2c(c1)CCN(C(=O)C1CCCCC1)C2)N1CCC(N2CCOCC2)CC1` [Example 158, Cyclohexyl-[6-(4-morpholin-4-yl-piperidine-1-carbonyl)-3,4-dihydro-1H-isoquinolin-2-yl]-methanone] was run?
Answer: The pKi was 5.39.

Question: `O=C(c1ccc2c(c1)CCN(C(=O)C1CCCCC1)C2)N1CCN2CCCC2C1` (stereo not shown) [Example 153, Cyclohexyl-[6-(hexahydro-pyrrolo[1,2-a]pyrazine-2-carbonyl)-3,4-dihydro-1H-isoquinolin-2-yl]-methanone] was tested. Which pKi did it give?
Answer: Its pKi is 7.27.

Question: `O=C(c1ccc2c(c1)CCNC2)N1CCOCC1` [Example 7, Morpholin-4-yl-(1,2,3,4-tetrahydro-isoquinolin-6-yl)-methanone] was tested. Which pKi did it give?
Answer: The pKi was 5.40.

Question: How did the pKi turn out when `CN(C)[C@H]1CCN(C(=O)c2ccc3c(c2)CCN(C(=O)C2CCCCC2)C3)C1` [Example 156, (S)-Cyclohexyl-[6-(3-dimethylamino-pyrrolidine-1-carbonyl)-3,4-dihydro-1H-isoquinolin-2-yl]-methanone] was run?
Answer: Its pKi is 7.52.

Question: With `O=C(c1ccc2c(c1)CCN(C(=O)c1ccc(Cl)c(Cl)c1)C2)N1CCN(C2CCC2)CC1` [Example 114, (4-Cyclobutyl-piperazin-1-yl)-[2-(3,4-dichloro-benzoyl)-1,2,3,4-tetrahydro-isoquinolin-6-yl]-methanone] as the compound, how does the pKi read?
Answer: Its pKi is 7.89.

Question: How did the pKi turn out when `O=C(c1ccc2c(c1)CCN(C(=O)c1ccccc1Cl)C2)N1CCN(C2CCCC2)CC1` [Example 68, [2-(2-Chloro-benzoyl)-1,2,3,4-tetrahydro-isoquinolin-6-yl]-(4-cyclopentyl-piperazin-1-yl)-methanone] was run?
Answer: Its pKi is 7.49.

Question: How did the pKi turn out when `Cc1ccccc1C(=O)N1CCc2cc(C(=O)N3CCN4CCCCC4C3)ccc2C1` (stereo not shown) [Example 96, [2-(2-Methyl-benzoyl)-1,2,3,4-tetrahydro-isoquinolin-6-yl]-(octahydro-pyrido[1,2-a]pyrazin-2-yl)-methanone] was run?
Answer: The pKi was 7.82.

Question: How did the pKi turn out when `O=C(c1ccc2c(c1)CCNC2)N1CCN2CCCCC2C1` (stereo not shown) [Example 10, (Octahydro-pyrido[1,2-a]pyrazin-2-yl)-(1,2,3,4-tetrahydro-isoquinolin-6-yl)-methanone] was run?
Answer: Its pKi is 7.80.
